Where a SMILES comes first, the peptide text is derived from it. [ ]: non-standard residue; d: D form. Aib = CC(C)(N)C(=O)O
Tests used:
human GLP-1R = human GLP-1R (Homo sapiens, UniProt P43220); test: Peptide-receptor mediated cAMP accumulation (LANCE Ultra cAMP) in CHO-K1 cells transfected with human GLP-1R; assay type: cell-based; settings: hGLP1 pEC50 (cAMP mean (n = 3): 11 point curve starting at 1 nM, Table 3)
human GCGR = human GCGR (Homo sapiens, UniProt P47871); test: Peptide-receptor mediated cAMP accumulation (LANCE Ultra cAMP) in CHO-K1 cells transfected with human GCGR; assay type: cell-based; settings: Table 3
human GCGR, sequence (P47871 26-477): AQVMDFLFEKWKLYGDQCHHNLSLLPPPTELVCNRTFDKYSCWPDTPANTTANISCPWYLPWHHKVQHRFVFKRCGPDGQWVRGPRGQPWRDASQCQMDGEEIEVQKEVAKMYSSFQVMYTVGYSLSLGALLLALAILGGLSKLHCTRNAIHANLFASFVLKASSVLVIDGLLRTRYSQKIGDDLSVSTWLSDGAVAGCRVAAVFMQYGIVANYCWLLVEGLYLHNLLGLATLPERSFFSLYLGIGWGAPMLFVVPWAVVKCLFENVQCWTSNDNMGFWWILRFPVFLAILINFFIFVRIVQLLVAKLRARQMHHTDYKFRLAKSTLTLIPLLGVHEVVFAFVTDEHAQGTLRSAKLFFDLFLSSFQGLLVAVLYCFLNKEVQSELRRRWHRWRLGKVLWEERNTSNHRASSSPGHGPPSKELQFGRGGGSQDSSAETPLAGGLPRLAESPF

human GLP-1R, sequence (P43220 24-463): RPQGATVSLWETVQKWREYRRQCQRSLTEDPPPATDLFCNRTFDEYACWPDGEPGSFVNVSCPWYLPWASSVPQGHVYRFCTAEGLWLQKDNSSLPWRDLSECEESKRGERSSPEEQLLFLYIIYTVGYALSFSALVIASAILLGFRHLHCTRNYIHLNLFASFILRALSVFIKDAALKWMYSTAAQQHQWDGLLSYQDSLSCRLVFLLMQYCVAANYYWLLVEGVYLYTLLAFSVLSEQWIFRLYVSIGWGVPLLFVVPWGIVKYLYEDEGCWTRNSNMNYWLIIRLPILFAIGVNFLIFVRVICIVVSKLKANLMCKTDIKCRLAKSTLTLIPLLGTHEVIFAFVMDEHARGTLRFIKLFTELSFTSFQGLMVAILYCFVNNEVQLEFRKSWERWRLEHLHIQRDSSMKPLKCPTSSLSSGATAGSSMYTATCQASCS

| SMILES | EC50 (human GLP-1R) [nM] | EC50 (human GCGR) [nM] |
| --- | --- | --- |
| CC(C)C[C@H](NC(=O)[C@H](Cc1c[nH]c2ccccc12)NC(=O)[C@H](CCCCN)NC(=O)[C@H](CO)NC(=O)[C@H](Cc1c[nH]cn1)NC(=O)[C@H](CC(=O)O)NC(=O)[C@H](CO)NC(=O)[C@@H](NC(=O)[C@H](Cc1ccccc1)NC(=O)[C@@H](NC(=O)CNC(=O)[C@H](Cc1c[nH]cn1)NC(=O)[C@H](CO)NC(=O)[C@@H](N)Cc1ccc(O)cc1)[C@@H](C)O)[C@@H](C)O)C(=O)N[C@@H](CC(=O)O)C(=O)NC(C)(C)C(=O)N[C@@H](CCCCN)C(=O)N[C@@H](CCCNC(=N)N)C(=O)N[C@@H](C)C(=O)N[C@@H](CCC(N)=O)C(=O)N[C@@H](CCC(=O)O)C(=O)N[C@@H](Cc1ccccc1)C(=O)N[C@H](C(=O)NC(C)(C)C(=O)N[C@@H](Cc1c[nH]c2ccccc12)C(=O)N[C@@H](CC(C)C)C(=O)N[C@@H](CCC(=O)O)C(=O)N[C@@H](CC(=O)O)C(=O)N[C@@H](CCC(=O)O)C(=O)N1CCC[C@H]1C(=O)N[C@@H](CO)C(=O)N[C@@H](CO)C(=O)NCC(=O)N[C@@H](C)C(=O)N1CCC[C@H]1C(=O)N1CCC[C@H]1C(=O)N1CCC[C@H]1C(=O)N[C@@H](CO)C(=O)O)C(C)C [Compound A33] (H-YSHGTFTSDHSKWLD[Aib]KRAQEFV[Aib]WLEDEPSSGAPPPS-OH; N-terminus assumed) | > 1 | 0.0126 |
| CC(C)C[C@H](NC(=O)[C@H](Cc1c[nH]c2ccccc12)NC(=O)[C@H](CCCCN)NC(=O)[C@H](CO)NC(=O)[C@H](Cc1c[nH]cn1)NC(=O)[C@H](CC(=O)O)NC(=O)[C@H](CO)NC(=O)[C@@H](NC(=O)[C@H](Cc1ccccc1)NC(=O)[C@@H](NC(=O)CNC(=O)[C@H](Cc1c[nH]cn1)NC(=O)[C@@H](NC(=O)[C@@H](N)Cc1ccc(O)cc1)[C@@H](C)O)[C@@H](C)O)[C@@H](C)O)C(=O)N[C@@H](CC(=O)O)C(=O)NC(C)(C)C(=O)N[C@@H](CCCCN)C(=O)N[C@@H](CCCNC(=N)N)C(=O)N[C@@H](C)C(=O)N[C@@H](CCC(N)=O)C(=O)N[C@@H](CCC(=O)O)C(=O)N[C@@H](Cc1ccccc1)C(=O)N[C@H](C(=O)NC(C)(C)C(=O)N[C@@H](Cc1c[nH]c2ccccc12)C(=O)N[C@@H](CC(C)C)C(=O)N[C@@H](CCC(=O)O)C(=O)N[C@@H](CC(=O)O)C(=O)N[C@@H](CCC(=O)O)C(=O)N1CCC[C@H]1C(=O)N[C@@H](CO)C(=O)N[C@@H](CO)C(=O)NCC(=O)N[C@@H](C)C(=O)N1CCC[C@H]1C(=O)N1CCC[C@H]1C(=O)N1CCC[C@H]1C(=O)N[C@@H](CO)C(=O)O)C(C)C [Compound A34] (H-YTHGTFTSDHSKWLD[Aib]KRAQEFV[Aib]WLEDEPSSGAPPPS-OH; N-terminus assumed) | > 1 | 0.0501 |
| CC(C)C[C@H](NC(=O)[C@H](Cc1c[nH]c2ccccc12)NC(=O)[C@H](CCCCN)NC(=O)[C@H](CO)NC(=O)[C@H](Cc1c[nH]cn1)NC(=O)[C@H](CC(=O)O)NC(=O)[C@H](CO)NC(=O)[C@@H](NC(=O)[C@H](Cc1ccccc1)NC(=O)[C@@H](NC(=O)CNC(=O)[C@H](Cc1c[nH]cn1)NC(=O)[C@H](CO)NC(=O)[C@@H](N)Cc1ccc(O)cc1)[C@@H](C)O)[C@@H](C)O)C(=O)N[C@@H](CC(=O)O)C(=O)NC(C)(C)C(=O)N[C@@H](C)C(=O)N[C@@H](CCCNC(=N)N)C(=O)N[C@@H](C)C(=O)N[C@@H](CCC(N)=O)C(=O)N[C@@H](CCC(=O)O)C(=O)N[C@@H](Cc1ccccc1)C(=O)N[C@H](C(=O)NC(C)(C)C(=O)N[C@@H](Cc1c[nH]c2ccccc12)C(=O)N[C@@H](CC(C)C)C(=O)N[C@@H](CCC(=O)O)C(=O)N[C@@H](CC(=O)O)C(=O)N[C@@H](CCC(=O)O)C(=O)N1CCC[C@H]1C(=O)N[C@@H](CO)C(=O)N[C@@H](CO)C(=O)NCC(=O)N[C@@H](C)C(=O)N1CCC[C@H]1C(=O)N1CCC[C@H]1C(=O)N1CCC[C@H]1C(=O)N[C@@H](CO)C(=O)O)C(C)C [Compound A36] (H-YSHGTFTSDHSKWLD[Aib]ARAQEFV[Aib]WLEDEPSSGAPPPS-OH; N-terminus assumed) | > 1 | 0.0631 |
| CC(C)C[C@H](NC(=O)[C@H](Cc1c[nH]c2ccccc12)NC(=O)[C@H](CCCCN)NC(=O)[C@H](CO)NC(=O)[C@H](Cc1ccc(O)cc1)NC(=O)[C@H](CC(=O)O)NC(=O)[C@H](CO)NC(=O)[C@@H](NC(=O)[C@H](Cc1ccccc1)NC(=O)[C@@H](NC(=O)CNC(=O)[C@H](Cc1c[nH]cn1)NC(=O)[C@@H](NC(=O)[C@@H](N)Cc1ccc(O)cc1)[C@@H](C)O)[C@@H](C)O)[C@@H](C)O)C(=O)N[C@@H](CC(=O)O)C(=O)N[C@@H](CO)C(=O)N[C@@H](C)C(=O)N[C@@H](CCCNC(=N)N)C(=O)N[C@@H](C)C(=O)N[C@@H](CCC(N)=O)C(=O)N[C@@H](CCC(=O)O)C(=O)N[C@@H](Cc1ccccc1)C(=O)N[C@H](C(=O)N[C@@H](CCCCN)C(=O)N[C@@H](Cc1c[nH]c2ccccc12)C(=O)N[C@@H](CC(C)C)C(=O)N[C@@H](CCC(=O)O)C(=O)N[C@@H](CC(=O)O)C(=O)N[C@@H](CCC(=O)O)C(=O)N1CCC[C@H]1C(=O)N[C@@H](CO)C(=O)N[C@@H](CO)C(=O)NCC(=O)N[C@@H](C)C(=O)N1CCC[C@H]1C(=O)N1CCC[C@H]1C(=O)N1CCC[C@H]1C(=O)N[C@@H](CO)C(=O)O)C(C)C [Compound A39] (H-YTHGTFTSDYSKWLDSARAQEFVKWLEDEPSSGAPPPS-OH; N-terminus assumed) | > 1 | 0.398 |
| CC(C)C[C@H](NC(=O)[C@H](Cc1c[nH]c2ccccc12)NC(=O)[C@H](CCCCN)NC(=O)[C@H](CO)NC(=O)[C@H](Cc1c[nH]cn1)NC(=O)[C@H](CC(=O)O)NC(=O)[C@H](CO)NC(=O)[C@@H](NC(=O)[C@H](Cc1ccccc1)NC(=O)[C@@H](NC(=O)CNC(=O)[C@H](Cc1c[nH]cn1)NC(=O)[C@H](CO)NC(=O)[C@@H](N)Cc1ccc(O)cc1)[C@@H](C)O)[C@@H](C)O)C(=O)N[C@@H](CC(=O)O)C(=O)N[C@@H](CO)C(=O)N[C@@H](C)C(=O)N[C@@H](CCCNC(=N)N)C(=O)N[C@@H](C)C(=O)N[C@@H](CCC(N)=O)C(=O)N[C@@H](CCC(=O)O)C(=O)N[C@@H](Cc1ccccc1)C(=O)N[C@H](C(=O)N[C@@H](CCCCN)C(=O)N[C@@H](Cc1c[nH]c2ccccc12)C(=O)N[C@@H](CC(C)C)C(=O)N[C@@H](CCC(=O)O)C(=O)N[C@@H](CC(=O)O)C(=O)N[C@@H](CCC(=O)O)C(=O)N1CCC[C@H]1C(=O)N[C@@H](CO)C(=O)N[C@@H](CO)C(=O)NCC(=O)N[C@@H](C)C(=O)N1CCC[C@H]1C(=O)N1CCC[C@H]1C(=O)N1CCC[C@H]1C(=O)N[C@@H](CO)C(=O)O)C(C)C [Compound A40] (H-YSHGTFTSDHSKWLDSARAQEFVKWLEDEPSSGAPPPS-OH; N-terminus assumed) | > 1 | 0.0794 |
| CC(C)C[C@H](NC(=O)[C@H](Cc1c[nH]c2ccccc12)NC(=O)[C@H](CCCCN)NC(=O)[C@H](CO)NC(=O)[C@H](Cc1c[nH]cn1)NC(=O)[C@H](CC(=O)O)NC(=O)[C@H](CO)NC(=O)[C@@H](NC(=O)[C@H](Cc1ccccc1)NC(=O)[C@@H](NC(=O)CNC(=O)[C@H](Cc1c[nH]cn1)NC(=O)[C@@H](NC(=O)[C@@H](N)Cc1ccc(O)cc1)[C@@H](C)O)[C@@H](C)O)[C@@H](C)O)C(=O)N[C@@H](CC(=O)O)C(=O)N[C@@H](CCC(=O)O)C(=O)N[C@@H](C)C(=O)N[C@@H](CCCNC(=N)N)C(=O)N[C@@H](C)C(=O)N[C@@H](CCC(N)=O)C(=O)N[C@@H](CCC(=O)O)C(=O)N[C@@H](Cc1ccccc1)C(=O)N[C@H](C(=O)N[C@@H](CCCCN)C(=O)N[C@@H](Cc1c[nH]c2ccccc12)C(=O)N[C@@H](CC(C)C)C(=O)N[C@@H](CCC(=O)O)C(=O)N[C@@H](CC(=O)O)C(=O)N[C@@H](CCC(=O)O)C(=O)N1CCC[C@H]1C(=O)N[C@@H](CO)C(=O)N[C@@H](CO)C(=O)NCC(=O)N[C@@H](C)C(=O)N1CCC[C@H]1C(=O)N1CCC[C@H]1C(=O)N1CCC[C@H]1C(=O)N[C@@H](CO)C(=O)O)C(C)C [Compound A41] (H-YTHGTFTSDHSKWLDEARAQEFVKWLEDEPSSGAPPPS-OH; N-terminus assumed) | > 1 | 0.631 |
| CC(C)C[C@H](NC(=O)[C@H](Cc1c[nH]c2ccccc12)NC(=O)[C@H](CCCCN)NC(=O)[C@H](CO)NC(=O)[C@H](Cc1ccc(O)cc1)NC(=O)[C@H](CC(=O)O)NC(=O)[C@H](CO)NC(=O)[C@@H](NC(=O)[C@H](Cc1ccccc1)NC(=O)[C@@H](NC(=O)CNC(=O)[C@H](Cc1c[nH]cn1)NC(=O)[C@@H](NC(=O)[C@@H](N)Cc1ccc(O)cc1)[C@@H](C)O)[C@@H](C)O)[C@@H](C)O)C(=O)N[C@@H](CC(=O)O)C(=O)N[C@@H](CO)C(=O)N[C@@H](CCCCN)C(=O)N[C@@H](CCCNC(=N)N)C(=O)N[C@@H](C)C(=O)N[C@@H](CCC(N)=O)C(=O)N[C@@H](CCC(=O)O)C(=O)N[C@@H](Cc1ccccc1)C(=O)N[C@H](C(=O)N[C@@H](CCCCN)C(=O)N[C@@H](Cc1c[nH]c2ccccc12)C(=O)N[C@@H](CC(C)C)C(=O)N[C@@H](CCC(=O)O)C(=O)N[C@@H](CC(=O)O)C(=O)N[C@@H](CCC(=O)O)C(=O)N1CCC[C@H]1C(=O)N[C@@H](CO)C(=O)N[C@@H](CO)C(=O)NCC(=O)N[C@@H](C)C(=O)N1CCC[C@H]1C(=O)N1CCC[C@H]1C(=O)N1CCC[C@H]1C(=O)N[C@@H](CO)C(=O)O)C(C)C [Compound A42] (H-YTHGTFTSDYSKWLDSKRAQEFVKWLEDEPSSGAPPPS-OH; N-terminus assumed) | > 1 | 0.398 |

— patent US20240239861A1, “GLUCAGON-RECEPTOR SELECTIVE POLYPEPTIDES AND METHODS OF USE THEREOF” (i2O Therapeutics, Inc., priority 2016, published 2024)
